In US11051514B2, “Antifungal compounds” (Mycovia Pharmaceuticals, Inc., priority 2015, dated 2021):

Assays:
[1] = Thermodynamic water solubility; type: physicochemical
[2] = test system: Septoria tritici (SEPTTR); assay: Evaluation of fungicidal activity: leaf blotch of wheat, disease control on wheat seedlings; type: in vivo; details: for 3DC % control / 3DP % Control: wheat (variety Yuma) seedlings; for fungicidal activity against the fungi responsible for leaf blotch of wheat (Septoria tritici): in comparison with example 5 of U.S. Pat. No. 8,748,461
Protocol: Example 3: Evaluation of Fungicidal Activity: Leaf Blotch of Wheat (Mycosphaerella graminicola; Anamorph: Septoria tritici; Bayer code […]) Technical grades of materials were dissolved in acetone, which were then mixed with nine volumes of water containing 110 ppm Triton X-100. The fungicide solutions were applied onto wheat seedlings using an automated booth sprayer to run-off. All sprayed plants were allowed to air dry prior to further handling. Wheat plants (variety Yuma) were grown from seed in a greenhouse in 50% mineral soil/50% soil-less Metro mix until the first leaf was fully emerged, with 7-10 seedlings per pot. These plants were inoculated with an aqueous spore suspension of Septoria tritici either prior to or after fungicide treatments. After inoculation the plants were kept in 100% relative humidity (one day in a dark dew chamber followed by two to three days in a lighted dew chamber at 20° C.) to permit spores to germinate and infect the leaf. The plants were then transferred to a greenhouse set at 20° C. for disease to develop. When disease symptoms were fully expressed on the 1st leaves of untreated plants, infection levels were assessed on a scale of 0 to 100 percent disease severity. Percent disease control was calculated using the ratio of disease severity on treated plants relative to untreated plants.

[3] = Log D partition coefficient, CHI method; type: physicochemical
Protocol: The Log D partition coefficient was measured using the CHI method.

**Q.** With N#Cc1ccc(Oc2ccc(C(F)(F)C(O)(Cn3cncn3)c3ccc(F)cc3F)nc2)cc1 (stereo not drawn) [Example 1, 4-((6-(2-(2,4-difluorophenyl)-1,1-difluoro-2-hydroxy-3-(1H-1,2,4-triazol-1-yl)propyl)pyridin-3-yl)oxy)benzonitrile] as the compound, how does the “H2O solubility (ppm) (thermodynamic)” value [1] read?
**A.** 37.33 ppm

**Q.** And the 3DC % control ([2]; 6.25 g/ha)?
**A.** 100%

**Q.** What about the 3DC % control ([2]; 25 g/ha) of the same compound?
**A.** 100%

**Q.** And the 3DC % control ([2]; 100 g/ha)?
**A.** 100%

**Q.** And the 3DC % control ([2]; rate g/ha)?
**A.** 99%

**Q.** And the “3DP % Control” value ([2]; 1.56 g/ha)?
**A.** 96%

**Q.** What about the “3DP % Control” value ([2]; 6.25 g/ha) of the same compound?
**A.** 96%

**Q.** And the “3DP % Control” value ([2]; 25 g/ha)?
**A.** 96%

**Q.** And the “3DP % Control” value ([2]; 100 g/ha)?
**A.** 100%

**Q.** What about the “fungicidal activity against the fungi responsible for leaf blotch of wheat (Septoria tritici)” value [2] of the same compound?
**A.** improved fungicidal activity

**Q.** And the chromatographic logD [3]?
**A.** 2.9

**Q.** Which “H2O solubility (ppm) (thermodynamic)” value [1] does the source give for N#Cc1ccc(Oc2ccc(C(F)(F)C(O)(Cn3ncnc3S)c3ccc(F)cc3F)nc2)cc1 (stereo not drawn) [Example 2, 4-((6-(2-(2,4-difluorophenyl)-1,1-difluoro-2-hydroxy-3-(5-thioxo-4,5-dihydro-1H-1,2,4-triazol-1-yl)propyl)pyridin-3-yl)oxy)benzonitrile] here?
**A.** 23.04 ppm

**Q.** And the 3DC % control ([2]; 6.25 g/ha)?
**A.** 94%

**Q.** What about the 3DC % control ([2]; 25 g/ha) of the same compound?
**A.** 99%

**Q.** What about the 3DC % control ([2]; 100 g/ha) of the same compound?
**A.** 100%

**Q.** And the 3DC % control ([2]; rate g/ha)?
**A.** 80%

**Q.** What about the “3DP % Control” value ([2]; 1.56 g/ha) of the same compound?
**A.** 94%

**Q.** And the “3DP % Control” value ([2]; 6.25 g/ha)?
**A.** 98%

**Q.** And the “3DP % Control” value ([2]; 25 g/ha)?
**A.** 100%

**Q.** What about the “3DP % Control” value ([2]; 100 g/ha) of the same compound?
**A.** 100%

**Q.** What about the “fungicidal activity against the fungi responsible for leaf blotch of wheat (Septoria tritici)” value [2] of the same compound?
**A.** improved fungicidal activity

**Q.** And the chromatographic logD [3]?
**A.** 2.83

**Q.** Which “H2O solubility (ppm) (thermodynamic)” value [1] does the source give for N#Cc1ccc(Oc2ccc(C(F)(F)C(O)(Cn3cnnn3)c3ccc(F)cc3F)nc2)cc1 (stereo not drawn) [Example 5*, 4-(6-(2-(2,4-difluorophenyl)-1,1-difluoro-2-hydroxy-3-(1H-tetrazol-1-yl)propyl)pyridin-3-yloxy)benzonitile, reference compound] here?
**A.** 28.39 ppm

**Q.** What about the 3DC % control ([2]; 6.25 g/ha) of the same compound?
**A.** 34%

**Q.** And the 3DC % control ([2]; 25 g/ha)?
**A.** 47%

**Q.** And the 3DC % control ([2]; 100 g/ha)?
**A.** 58%

**Q.** And the 3DC % control ([2]; rate g/ha)?
**A.** 22%

**Q.** And the “3DP % Control” value ([2]; 1.56 g/ha)?
**A.** 22%

**Q.** What about the “3DP % Control” value ([2]; 6.25 g/ha) of the same compound?
**A.** 36%

**Q.** And the “3DP % Control” value ([2]; 25 g/ha)?
**A.** 50%

**Q.** And the “3DP % Control” value ([2]; 100 g/ha)?
**A.** 64%

**Q.** What about the chromatographic logD [3] of the same compound?
**A.** 3.02

**Q.** Which results are given for OC(Cn1cncn1)(c1ccc(F)cc1F)C(F)(F)c1ccc(OCc2cccc(F)c2F)cn1 (stereo not drawn) [Example 45*, reference compound]?
**A.** H2O solubility (ppm) (thermodynamic) [1]: 5.15 ppm; 3DC % control ([2]; 6.25 g/ha): 86%; 3DC % control ([2]; 25 g/ha): 85%; 3DC % control ([2]; 100 g/ha): 86%; 3DC % control ([2]; rate g/ha): 78%; 3DP % Control ([2]; 1.56 g/ha): 58%; 3DP % Control ([2]; 6.25 g/ha): 89%; 3DP % Control ([2]; 25 g/ha): 93%; 3DP % Control ([2]; 100 g/ha): 95%; chromatographic logD [3]: 3.32
